Test results reported in PubChem BioAssay (NCI).
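Dose response: 5 concentrations. Exposure: 48 h. Format: 96-well plates. Endpoint: linear interpolation; highest concentration if not reached. TGI: concentration producing complete growth inhibition.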

What was measured:
Test in all cases: NCI tumour cell line growth inhibition, 48 h
UO-31 renal = tested on: UO-31 renal
NCI-H522 lung = tested on: NCI-H522 lung
K-562 leukemia = tested on: K-562 leukemia
PC-3 prostate = tested on: PC-3 prostate
SNB-75 CNS = tested on: SNB-75 CNS
SF-268 CNS = tested on: SF-268 CNS
HOP-92 NSCLC = tested on: HOP-92 NSCLC
T-47D breast = tested on: T-47D breast
HCT-15 colon = tested on: HCT-15 colon
IGROV1 ovarian = tested on: IGROV1 ovarian
UACC-257 melanoma = tested on: UACC-257 melanoma
HL-60(TB) leukemia = tested on: HL-60(TB) leukemia
MDA-N = tested on: MDA-N
MOLT-4 leukemia = tested on: MOLT-4 leukemia
MCF7 breast = tested on: MCF7 breast
U251 CNS = tested on: U251 CNS
SN12C renal = tested on: SN12C renal
HOP-62 NSCLC = tested on: HOP-62 NSCLC
CAKI-1 renal = tested on: CAKI-1 renal
LOX IMVI melanoma = tested on: LOX IMVI melanoma
A498 renal = tested on: A498 renal
SK-MEL-28 melanoma = tested on: SK-MEL-28 melanoma
SK-OV-3 ovarian = tested on: SK-OV-3 ovarian
CCRF-CEM leukemia = tested on: CCRF-CEM leukemia
EKVX NSCLC = tested on: EKVX NSCLC
SW-620 colon = tested on: SW-620 colon
MALME-3M melanoma = tested on: MALME-3M melanoma
SF-295 CNS = tested on: SF-295 CNS
M14 melanoma = tested on: M14 melanoma
HT29 colon = tested on: HT29 colon
A549 NSCLC = tested on: A549 NSCLC
SNB-19 CNS = tested on: SNB-19 CNS
OVCAR-5 ovarian = tested on: OVCAR-5 ovarian
HCC-2998 colon = tested on: HCC-2998 colon
HCT-116 colon = tested on: HCT-116 colon
MDA-MB-435 = tested on: MDA-MB-435
HS 578T breast = tested on: HS 578T breast
NCI/ADR-RES ovarian = tested on: NCI/ADR-RES ovarian
ACHN renal = tested on: ACHN renal
RPMI-8226 leukemia = tested on: RPMI-8226 leukemia
UACC-62 melanoma = tested on: UACC-62 melanoma
786-0 renal = tested on: 786-0 renal
MDA-MB-231 breast = tested on: MDA-MB-231 breast
DU-145 prostate = tested on: DU-145 prostate
OVCAR-4 ovarian = tested on: OVCAR-4 ovarian
OVCAR-3 ovarian = tested on: OVCAR-3 ovarian
OVCAR-8 ovarian = tested on: OVCAR-8 ovarian
RXF 393 renal = tested on: RXF 393 renal
KM12 colon = tested on: KM12 colon
TK-10 renal = tested on: TK-10 renal
BT-549 breast = tested on: BT-549 breast
SR leukemia = tested on: SR leukemia
NCI-H23 lung = tested on: NCI-H23 lung
DMS 114 small cell lung = tested on: DMS 114 small cell lung
DLD-1 colon = tested on: DLD-1 colon
NCI-H226 lung = tested on: NCI-H226 lung
SK-MEL-2 melanoma = tested on: SK-MEL-2 melanoma
KM20L2 colon = tested on: KM20L2 colon
SK-MEL-5 melanoma = tested on: SK-MEL-5 melanoma
M19-MEL melanoma = tested on: M19-MEL melanoma
SNB-78 CNS = tested on: SNB-78 CNS
SF-539 CNS = tested on: SF-539 CNS
DMS 273 small cell lung = tested on: DMS 273 small cell lung
NCI-H460 lung = tested on: NCI-H460 lung
LXFL 529 NSCLC = tested on: LXFL 529 NSCLC

Measured: TGI

Cc1cn2c(/C=C3/C(=O)Nc4cccc(Cl)c43)c(Cl)nc2s1
42.5 µM: HS 578T breast
27.3 µM: U251 CNS
36.5 µM: SK-MEL-28 melanoma
87 µM: RXF 393 renal
28 µM: CCRF-CEM leukemia
39.1 µM: HOP-62 NSCLC
43.6 µM: SNB-75 CNS
37.4 µM: TK-10 renal
76.5 µM: HCC-2998 colon
not listed: DMS 114 small cell lung | DLD-1 colon | NCI-H226 lung | SK-MEL-2 melanoma | KM20L2 colon | SK-MEL-5 melanoma | M19-MEL melanoma | SNB-78 CNS | SF-539 CNS | DMS 273 small cell lung | NCI-H460 lung | LXFL 529 NSCLC
> 100 µM: all other assays above

O=Cc1cn(C(=O)c2ccccc2)c2ccccc12
92.6 µM: HL-60(TB) leukemia
not listed: NCI-H522 lung | PC-3 prostate | SF-268 CNS | HOP-92 NSCLC | T-47D breast | MDA-N | MCF7 breast | SN12C renal | LOX IMVI melanoma | SNB-19 CNS | MDA-MB-435 | HS 578T breast | NCI/ADR-RES ovarian | MDA-MB-231 breast | DU-145 prostate | BT-549 breast | SR leukemia
> 100 µM: all other assays above
